From doi:10.1101/2025.11.12.687946v2 (biorxiv, 2025) come the findings set out here.

Data set [1] has as its target T1, PaSuhB (Pseudomonas aeruginosa, UniProt Q9HXI4).
T1 sequence (Q9HXI4 1-271): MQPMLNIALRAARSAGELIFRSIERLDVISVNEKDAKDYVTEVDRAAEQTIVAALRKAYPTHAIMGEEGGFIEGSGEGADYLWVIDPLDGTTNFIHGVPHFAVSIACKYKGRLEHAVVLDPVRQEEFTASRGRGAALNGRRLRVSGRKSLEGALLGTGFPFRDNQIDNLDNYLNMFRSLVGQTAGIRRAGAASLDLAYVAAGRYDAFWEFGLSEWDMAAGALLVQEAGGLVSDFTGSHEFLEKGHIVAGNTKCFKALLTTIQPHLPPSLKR
The data set can be described thus: biochemical.

Data set [2] concerns the target T1, PaSuhB. Kind of data set: biochemical. The source holds these as a separate data set.
Substrate in the data set “purified protein”: O=P(O)(O)O[C@@H]1[C@H](O)[C@H](O)[C@@H](O)[C@H](O)[C@H]1O
The data set can be described thus: purified protein. The conditions noted are these: Mg2+, pH 8.0, 37 °C, no inhibitor.

The molecule `O=C(O)c1cc(O)c(O)c(O)c1` [GDE, 3,4,5-trihydroxybenzoic acid] returned an IC50 against PaSuhB [1] of about 1340 µM. In addition, binding on PaSuhB [2] was characterised by a dissociation constant (Kd) of 8.71 µM.

B1: PaSuhB (Pseudomonas aeruginosa PAO1) (protein)
chain: T1 sequence (Q9HXI4 1-271)
With B1, the Km in “purified protein” turned out to be 43.82 µM.
